Results from patent US10653667B2, “Drug for preventing, treating or preventing metastasis of giant cell tumor that occurs in bone or soft parts, chondrosarcoma, or osteosarcoma, local injection for arterial embolization, and artificial bone” (NIPPON CHEMIPHAR CO., LTD, priority 2013, dated 2020).
“Also recorded” adds a separate entry of the source.

Legend:
SW1353 cells [1] = test: Proliferation of SW1353 cells cultured beforehand with PPARγ siRNA or control siRNA; format: cell-based, human; details: 100 μM rosiglitazone; 24 hours
SW1353 cells [2] = test: Cell migration of human chondrosarcoma cell line SW1353; format: cell-based; details: 72 hours
Experimental: The analysis of cell migration was performed by using a 6-well plate of TPP according to the method described in Takeuchi A, et al., Cancer Science, 104:740-749, 2013 (Low molecular weight heparin suppresses receptor for advanced glycation end products-mediated expression of malignant phenotype in human fibrosarcoma cells). Cells of the human chondrosarcoma cell line, SW1353, were cultured in the same manner as that of Example 1 until they became sub-confluent, and the cells were delaminated in a width of 1 mm using a micropipette tip (200 μl). […] Then, area of the cells migrated to the region where the cells were delaminated was measured by using Image J software (http://rsb.info.nih.gov/ij/index.html) (FIGS. 73 and 74).

[3] = system: GCTB cultured cells (case 1, case 2; GCT-1, GCT-2); test: Suppression of cell proliferation of GCTB cultured cells (Cell Counting Kit-8, WST assay); format: cell-based, human; details: drug at various concentrations, CCK-8 24 hours after addition
Experimental: Tissue Int., 75:71-77), repeatedly subcultured until there were only spindle-shaped cells, which state was gradually attained from the state that there were also multinucleated giant cells observed in an early stage, and then used for the following analysis. […] Zaltoprofen was added as a solution in DMSO (dimethyl sulfoxide) prepared at a concentration 1000 times higher than the final concentration, and the solution was added in a volume of 0.1% of the volume of the medium. The same shall apply to the other drugs used in the following examples. […]

[4] = system: cultured cells of giant cell tumor of tendon sheath (GCTT); test: Suppression of cell proliferation of GCTT cultured cells (CCK-8); format: cell-based, human; details: drug at various concentrations, CCK-8 24 hours after addition
[5] = system: cultured cells of pigmented villonodular synovitis (PVNS); test: Suppression of cell proliferation of PVNS cultured cells (CCK-8); format: cell-based, human; details: for suppression of cell proliferation (absorbance at 450 nm): PVNS cells, drug at various concentrations, CCK-8 24 hours after addition
H-EMC-SS cells = test: Suppression of cell proliferation of chondrosarcoma cell line H-EMC-SS (CCK-8); format: cell-based, human; details: drug at various concentrations
Source text: The H-EMC-SS cells were obtained from the Riken BioResource Center.
(§1) The H-EMC-SS cells were obtained from the Riken BioResource Center. As the SW1353 cells, those obtained from ATCC were used.

SW1353 cells [6] = test: Suppression of cell proliferation of chondrosarcoma cell line SW1353 (CCK-8); format: cell-based, human; details: drug at various concentrations
Source text: as §1

SW1353 cells [7] = test: Cell invasion of SW1353 cells (Matrigel Invasion Chamber); format: cell-based, human; details: all set concentrations, concentration-dependent; 24 hours
Source text: For the analysis of cell invasion, Matrigel™ Invasion Chamber (BD Bioscience, catalog number 354480), which uses Matrigel as the matrix, was used. […] FIGS. 76 and 77 show microphotographs of invaded cells fixed by immersion into a 4% paraformaldehyde solution, and stained with hematoxylin (magnification is 200 times). From the microphotographs of FIGS. 76 and 77, the patterns of the invaded cells can be understood.

[8] = system: synovial cells derived from rheumatism patients; details: cited from earlier work
Solubility in DMSO = format: physicochemical; details: limited highest test concentration (lornoxicam 80 μm, ampiroxicam 20 μm)
PVNS = details: in vitro; cited from earlier work
[9] = system: OST cells, human bone sarcoma-derived cultured cells; details: transdermally administered; after four weeks; cited from earlier work
colon cancer = details: cited from earlier work
[10] = all set concentrations, concentration-dependent

Structure (SMILES)	suppression of cell proliferation (live cell count, absorbance at 450 nm) [3]	suppression of cell proliferation (absorbance at 450 nm) [4]	suppression of cell proliferation (absorbance at 450 nm) [5]	suppression of cell proliferation (absorbance at 450 nm) (H-EMC-SS cells)	suppression of cell proliferation (absorbance at 450 nm) (SW1353 cells [6])	activation of PPARγ [8]	apoptosis [8]	suppression of proliferation of the cells [8]	other results
CN(CCOc1ccc(CC2SC(=O)NC2=O)cc1)c1ccccn1 (stereo not shown) [rosiglitazone]									suppression of proliferation of SW1353 cells (SW1353 cells [1]): about 61%
Cc1c(C)c2c(c(C)c1O)CCC(C)(COc1ccc(CC3SC(=O)NC3=O)cc1)O2 (stereo not shown) [troglitazone]									suppression of cell migration of SW1353 cells (SW1353 cells [2]; 100 μM troglitazone): about 65%
Cc1ccc(-c2cc(C(F)(F)F)nn2-c2ccc(S(N)(=O)=O)cc2)cc1 [celecoxib]									suppression of cell migration of SW1353 cells (SW1353 cells [2]; 75 μM celecoxib): higher than 80%
CC(=O)Nc1ccc(O)cc1 [acetaminophen]	suppressed in a drug concentration-dependent manner; also recorded: suppressed proliferation	suppressed proliferation	suppressed proliferation	suppressed proliferation	suppressed proliferation	did not cause activation of PPARγ	did not cause	did not cause	suppression of cell migration of SW1353 cells (SW1353 cells [2]; [10]): suppressed the cell migration; suppression of cell invasion of SW1353 cells (SW1353 cells [7]): suppressed the cell invasion
CN1C(C(=O)Nc2ccccn2)=C(O)c2sc(Cl)cc2S1(=O)=O [lornoxicam]	suppressed proliferation	suppressed proliferation	suppressed proliferation	suppressed proliferation	suppressed proliferation				solubility in DMSO (dimethyl sulfoxide) (Solubility in DMSO): low solubility
COc1ccc2c(c1)c(CC(=O)OCC(=O)O)c(C)n2C(=O)c1ccc(Cl)cc1 [acemetacine, acemetacin]	suppressed proliferation	suppressed proliferation	suppressed proliferation	suppressed proliferation	suppressed proliferation				
COc1ccc2cc([C@H](C)C(=O)O)ccc2c1 [naproxen]	suppressed proliferation	suppressed proliferation	suppressed proliferation	suppressed proliferation	suppressed proliferation				
NC(=O)c1ncn([C@@H]2O[C@H](CO)[C@@H](O)[C@H]2O)c1O [mizoribine]									inhibition of proliferation of PVNS (PVNS): slightly inhibited proliferation
COc1ccc(-c2noc(CC(=O)O)c2-c2ccc(OC)cc2)cc1 [mofezolac]	suppressed proliferation	suppressed proliferation	suppressed proliferation	suppressed proliferation	suppressed proliferation				
CC(C(=O)O)c1cccc(C(=O)c2ccccc2)c1 (stereo not shown) [ketoprofen]						did not cause activation of PPARγ	did not cause	did not cause	tumor weight relative to placebo group [9]: 48%
O=C(O)Cc1ccccc1Nc1c(Cl)cccc1Cl [diclofenac]	suppressed in a drug concentration-dependent manner; also recorded: suppressed proliferation	suppressed proliferation	suppressed proliferation	suppressed proliferation	suppressed proliferation	activated PPARγ	caused apoptosis	suppress proliferation	suppression of cell migration of SW1353 cells (SW1353 cells [2]; [10]): suppressed the cell migration; suppression of cell invasion of SW1353 cells (SW1353 cells [7]): suppressed the cell invasion; occurrence of colon cancer (colon cancer; induced by repetitive administration of 1,2-dimethylhydrazine dihydrochloride to rats): prevented occurrence of colon cancer; amount of NF-κB protein in the large intestine (colon cancer; rats): reduced amount of NF-κB protein; amount of the PPARγ protein (colon cancer; rats): increased amount of the PPARγ protein
CCOC(=O)OC(C)OC1=C(C(=O)Nc2ccccn2)N(C)S(=O)(=O)c2ccccc21 (stereo not shown) [ampiroxicam]	suppressed proliferation	suppressed proliferation	suppressed proliferation	suppressed proliferation	suppressed proliferation				solubility in DMSO (dimethyl sulfoxide) (Solubility in DMSO): low solubility
O=C(O)CCc1nc(-c2ccccc2)c(-c2ccccc2)o1 [oxaprozin]	suppressed proliferation	suppressed proliferation	suppressed proliferation	suppressed proliferation	suppressed proliferation	activated PPARγ	caused apoptosis	suppress proliferation	suppression of the proliferation at the highest measured concentration ([5]; oxaprozin 200 μm, cells of pigmented villonodular synovitis as printed, 400 μm or higher could not be measured): only slight suppression
CS(=O)(=O)Nc1ccc([N+](=O)[O-])cc1OC1CCCCC1 [NS-398]						did not activate PPARγ	did not cause apoptosis	suppressed proliferation	
COc1ccc2c(c1)c(CC(=O)O)c(C)n2C(=O)c1ccc(Cl)cc1 [indomethacin]	suppressed in a drug concentration-dependent manner; also recorded: suppressed proliferation	suppressed proliferation	suppressed proliferation	suppressed proliferation	suppressed proliferation	activated PPARγ	caused apoptosis	suppress proliferation	suppression of cell migration of SW1353 cells (SW1353 cells [2]; [10]): suppressed the cell migration; suppression of cell invasion of SW1353 cells (SW1353 cells [7]): suppressed the cell invasion
CCc1cccc2c3c([nH]c12)C(CC)(CC(=O)O)OCC3 (stereo not shown) [etodolac]	suppressed proliferation	suppressed proliferation	suppressed proliferation	suppressed proliferation	suppressed proliferation				
